Results published in PubChem BioAssay (NCI).
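Each compound was tested at five concentrations against cells in 96-well plates for 48 hours. GI50 is the concentration that inhibits growth by half. TGI: total growth inhibition.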

Experiments:
Assay in all cases: NCI anticancer screen, dose series, 48 h
[1] = system: OVCAR-3 ovarian
[2] = system: DU-145 prostate
[3] = system: UO-31 renal
[4] = system: SNB-75 CNS
[5] = system: SR leukemia
[6] = system: OVCAR-5 ovarian
[7] = system: OVCAR-8 ovarian
[8] = system: A498 renal
[9] = system: HS 578T breast

| Compound | TGI [1] | TGI [2] | TGI [3] | TGI [4] | TGI [5] | TGI [6] | TGI [7] | GI50 [1] | GI50 [2] | GI50 [8] | TGI [8] | GI50 [3] | GI50 [9] | TGI [9] | GI50 [4] | GI50 [6] | GI50 [7] |
| --- | --- | --- | --- | --- | --- | --- | --- | --- | --- | --- | --- | --- | --- | --- | --- | --- | --- |
| c1ccc2c(c1)SCCCSCCSCCCS2 | > 100 µM | > 100 µM | > 100 µM | > 100 µM | > 100 µM | > 100 µM | > 100 µM |  |  |  |  |  |  |  |  |  |  |
| Cc1cc(OC(=O)NCn2cc(-c3ccccc3)nn2)ccc1Cl |  | > 100 µM |  | > 100 µM | > 100 µM | > 100 µM | > 100 µM |  |  |  |  |  |  |  |  |  |  |
| Cc1nnc2n1N=C(c1ccc(Cl)cc1Cl)/C(=C/c1ccc(-c3ccc([N+](=O)[O-])cc3Cl)o1)S2 | 34 µM | 38.9 µM | 31 µM | > 100 µM |  | 30.9 µM | 41.5 µM | 14.4 µM | 18.7 µM | 31.7 µM | 95.8 µM | 14.8 µM | 20.2 µM | 50.7 µM | 73.2 µM | 16.5 µM | 18.1 µM |
| O=c1[nH]n(Cc2ccccc2)c2ccc([N+](=O)[O-])cc12 | > 100 µM | > 100 µM | > 100 µM |  | > 100 µM | > 100 µM | > 100 µM |  |  |  | > 100 µM |  |  | > 100 µM |  |  |  |
| COc1ccc(C(=O)CC(c2ccccc2)[C@H]2C(c3ccc(OC)cc3)=Nc3c(nc(SC)n(C)c3=O)NC2c2ccccc2)cc1 (stereo partly drawn) | > 100 µM | > 100 µM |  |  | > 100 µM | > 100 µM |  |  |  |  | > 100 µM |  |  | > 100 µM |  |  |  |
| NN=C(CC(O)(C(F)(F)Cl)C(F)(F)Cl)CC(O)(C(F)(F)Cl)C(F)(F)Cl | > 10 µM | > 10 µM |  | > 10 µM | > 10 µM | > 10 µM | > 10 µM |  |  |  | > 10 µM |  |  | > 10 µM |  |  |  |
| C/C(=N\Nc1nc2ccccc2n1C)c1cc2ccccc2cn1 |  | 8.08 µM | 5.03 µM | 11.8 µM | > 100 µM | 21.6 µM | 4.24 µM |  |  |  | 1.47 µM |  |  | 15.1 µM |  |  |  |
| NNC(=O)C1(NC(=O)c2ccccc2)C(c2ccccc2)C(c2ccccc2)=NN1c1ccccc1 (stereo not drawn) | > 100 µM | > 100 µM | > 100 µM | > 100 µM | 65.6 µM | > 100 µM | > 100 µM |  |  |  | > 100 µM |  |  |  |  |  |  |
| CCc1cc2c(c3c1CCCC3=O)CC1(Cc3ccc(C(=O)OC)cc3C1)C2 (stereo not drawn) | > 100 µM | > 100 µM | > 100 µM | > 100 µM |  | > 100 µM | > 100 µM |  |  |  | > 100 µM |  |  | > 100 µM |  |  |  |
| Cn1c(-c2ccc(/C=N/NC(=S)N/N=C/c3ccc(-c4c[n+]5ccsc5n4C)cc3)cc2)c[n+]2ccsc12 |  |  | > 100 µM | > 100 µM | > 100 µM | > 100 µM | > 100 µM |  |  |  |  |  |  | > 100 µM |  |  |  |
| CN1C(=O)C(O)C[C@@H]1c1ccccc1 (stereo partly drawn) | > 100 µM | > 100 µM | > 100 µM | > 100 µM | > 100 µM | > 100 µM | > 100 µM |  |  |  |  |  |  | > 100 µM |  |  |  |
| COc1ccc2cc(CNCCCCCCNCc3ccc4cc(OC)ccc4c3)ccc2c1 | 1.17 µM | 2.99 µM | 3.01 µM | 2.66 µM |  | 2.03 µM | 1.15 µM |  |  |  | 2.99 µM |  |  | 3.62 µM |  |  |  |
| CC(C)/C(Cl)=N\OC(NC(=O)P(=O)(c1ccccc1)c1ccccc1)(C(F)(F)F)C(F)(F)F | 18.4 µM | 72 µM | 21 µM |  | 59 µM | 48.3 µM | 32 µM |  |  |  | 28.6 µM |  |  | > 100 µM |  |  |  |
| Cn1c(=O)oc2nc(-c3ccccc3)cc(C(F)(F)F)c21 | > 100 µM | > 100 µM | > 100 µM | > 100 µM | > 100 µM | > 100 µM | > 100 µM |  |  |  | 55.7 µM |  |  |  |  |  |  |
| CCCCCCCCCCCCCCCCCCNc1nc(=O)n(C2CC(O)C(COP(=O)(O)O)O2)cc1F (stereo not drawn) | > 100 µM | > 100 µM | > 100 µM | > 100 µM |  | > 100 µM | > 100 µM |  |  |  | > 100 µM |  |  | > 100 µM |  |  |  |
| CCOP(=O)(OCC)/C(=C/c1cccs1)CC(C)=O | > 100 µM | > 100 µM | > 100 µM | > 100 µM |  | > 100 µM | > 100 µM |  |  |  | > 100 µM |  |  | > 100 µM |  |  |  |
| Cc1ccc(S(=O)(=O)Nc2nnc(S(N)(=O)=O)s2)cc1 | > 100 µM | > 100 µM | > 100 µM |  | > 100 µM | > 100 µM | > 100 µM |  |  |  | > 100 µM |  |  | > 100 µM |  |  |  |
| Cc1c(C(=O)OCc2ccccc2)[n+](=O)c2cc(Cl)c(Cl)cc2n1[O-] | 25 µM | 27.6 µM | 32 µM |  | 21.4 µM | 39.2 µM | 46.5 µM |  |  |  | 35.6 µM |  |  | 47.4 µM |  |  |  |
| COc1ccc(Nc2ccc3ccccc3c2-c2c(O)ccc3ccccc23)cc1 | 27.7 µM | 33.8 µM | 26.4 µM | 46.2 µM | 30.6 µM | 31.8 µM | 33.6 µM |  |  |  |  |  |  |  |  |  |  |
| CCN(CC)C(=S)SS(=O)(=O)c1cccc(N)c1 | > 100 µM | > 100 µM | > 100 µM |  | > 100 µM | > 100 µM | > 100 µM |  |  |  | > 100 µM |  |  | > 100 µM |  |  |  |
| Nc1nc(Cl)cc(NC23CC4CC(CC(C4)C2)C3)n1 | > 100 µM | > 100 µM | > 100 µM | 90.8 µM | > 100 µM | > 100 µM | > 100 µM |  |  |  | > 100 µM |  |  |  |  |  |  |
| CCOC(=O)c1cc2c([N+](=O)[O-])c(N)ccc2s1 | > 100 µM | > 100 µM | > 100 µM | > 100 µM |  | > 100 µM | > 100 µM |  |  |  | > 100 µM |  |  | > 100 µM |  |  |  |
| COC(=O)C1C(=O)N(C)C(=O)N2CCCC12 (stereo not drawn) | > 100 µM | > 100 µM | > 100 µM | > 100 µM |  | > 100 µM | > 100 µM |  |  |  | > 100 µM |  |  | > 100 µM |  |  |  |
| C=CCOn1c(C=C)nc2ccc(C)cc21 | 40.9 µM |  | 27.4 µM | 43.4 µM | 33.4 µM | 41.7 µM | > 100 µM |  |  |  | 43.6 µM |  |  | > 100 µM |  |  |  |
| NCC(O)CSCc1ccc(Cl)cc1 (stereo not drawn) | > 100 µM | > 100 µM | > 100 µM |  |  | > 100 µM | > 100 µM |  |  |  | > 100 µM |  |  | > 100 µM |  |  |  |
